Data on 25 sequences can be found in US9791443B2, “Method for differentially quantifying naturally processed HLA-restricted peptides for cancer, autoimmune and infectious diseases immunotherapy development” (IMMATICS BIOTECHNOLOGIES GMBH, priority 2010, dated 2017).

In this assay the test system is CD8+ T cells. Put plainly: In vitro immunogenicity: priming of CD8+ T cells with pMHC/anti-CD28 coated beads (aAPC), A*2402 multimer staining. In kind it is cell-based, human. The following applies: HLA-A*24 healthy donors, three stimulation cycles; for Positive donors/donors tested [%]: positive among evaluable donors, at least two donors evaluable per peptide; for Positive wells/wells tested [%]: positive among evaluable wells, at least 24 wells evaluable per peptide. From the text: To get information regarding the immunogenicity of the TUMAPs of the present invention, we performed investigations using a well established in vitro stimulation platform already described by (Walter, S, Herrgen, L, Schoor, O, Jung, G, Wernet, D, Buhring, H J, Rammensee, H G, and Stevanovic, S; 2003, Cutting edge: predetermined avidity of human CD8 T cells expanded on calibrated MHC/anti-CD28-coated microspheres, J. Immunol., 171, 4974-4978).
In order to perform in vitro stimulations by artificial antigen presenting cells (aAPC) loaded with peptide-MHC complex (pMHC) and anti-CD28 antibody, we first isolated CD8 T cells from fresh HLA-A*24 leukapheresis products of healthy donors obtained from the Blood Bank Tuebingen.
CD8 T cells were either directly enriched from the leukapheresis product or PBMCs (peripheral blood mononuclear cells) were isolated first by using standard gradient separation medium (PAA, Cölbe, Germany). Isolated CD8 lymphocytes or PBMCs were incubated until use in T-cell medium (TCM) consisting of RPMI-Glutamax (Invitrogen, Karlsruhe, Germany) supplemented with 10% heat inactivated human AB serum (PAN-Biotech, Aidenbach, Germany), 100 U/ml Penicillin/100 μg/ml Streptomycin (Cambrex, Cologne, Germany), 1 mM sodium pyruvate (CC Pro, Oberdorla, Germany), 20 μg/ml Gentamycin (Cambrex). 2.5 ng/ml IL-7 (PromoCell, Heidelberg, Germany) and 10 U/ml IL-2 (Novartis Pharma, Nürnberg, Germany) were also added to the TCM at this step. Isolation of CD8+ lymphocytes was performed by positive selection using CD8 MicroBeads (Miltenyi Biotec, Bergisch-Gladbach, Germany).
Generation of pMHC/anti-CD28 coated beads, T-cell stimulations and readout was performed as described before (Walter et al. 4974-78) with minor modifications. Briefly, biotinylated peptide-loaded recombinant HLA-A*2402 molecules lacking the transmembrane domain and biotinylated at the carboxy terminus of the heavy chain were produced. The purified costimulatory mouse IgG2a anti human CD28 Ab 9.3 (Jung, Ledbetter, and Muller-Eberhard 4611-15) was chemically biotinylated using Sulfo-N-hydroxysuccinimidobiotin as recommended by the manufacturer (Perbio, Bonn, Germany).
800.000 beads/200 μl were coated in 96-well plates in the presence of 600 ng biotin anti-CD28 plus 200 ng relevant biotin-pMHC (high density beads). Stimulations were initiated in 96-well plates by co-incubating 1×10^6 CD8+ T cells with 2×10^5 washed coated beads in 200 μl TCM supplemented with 5 ng/ml IL-12 (PromoCell) for 3-4 days at 37° C. Half of the medium was then exchanged by fresh TCM supplemented with 80 U/ml IL-2 and incubating was continued for 3-4 days at 37° C. This stimulation cycle was performed for a total of three times. Finally, multimeric analyses were performed by staining the cells with Live/dead-Aqua dye (Invitrogen, Karlsruhe, Germany), CD8-FITC antibody clone SK1 (BD, Heidelberg, Germany) and PE- or APC-coupled A*2402 MHC multimers. For analysis, a BD LSRII SORP cytometer equipped with appropriate lasers and filters was used. Peptide specific cells were calculated as percentage of total CD8+ cells. Evaluation of multimeric analysis was done using the FlowJo software (Tree Star, Oregon, USA). In vitro priming of specific multimer+ CD8+ lymphocytes was detected by appropriate gating and by comparing to negative control stimulations.

For the sequence “AYAIIKEEL (listed as Homo sapiens) [ATAD2-001]”, the “Positive donors/donors tested [%]” value is recorded as 50% and the “Positive wells/wells tested [%]” value is recorded as 4%.
On to “AYLVYTDRL (listed as Homo sapiens) [PPAP2C-001]”, for which the “Positive donors/donors tested [%]” value is given as 100% and the “Positive wells/wells tested [%]” value worked out at 54%.
For “FYISPVNKL (listed as Homo sapiens) [AVL9-001]” the same measures were 100% and 50%.
For “HYKPTPLYF (listed as Homo sapiens) [SMC4-001]” the same measures were 75% and 9%.
In the case of “IYNGKLFDLL (listed as Homo sapiens) [KIF2C-001]”, the “Positive donors/donors tested [%]” value worked out at 13% and the “Positive wells/wells tested [%]” value was 2%.
The corresponding values for “KYNDTFWKEF (listed as Homo sapiens) [HSP90B1-001]” are 50% and 4%.
The corresponding values for “LYQILQGIVF (listed as Homo sapiens) [CDC2-001]” are 88% and 28%.
Regarding “NYEETFPHI (listed as Homo sapiens) [MUC6-001]”, the “Positive donors/donors tested [%]” value came out at 50% and the “Positive wells/wells tested [%]” value was determined as 21%.
Take NYLLYVSNF [MMP11-001]: the “Positive donors/donors tested [%]” value is given as 33% and the “Positive wells/wells tested [%]” value is 11%.
For “NYLLYVSNF [MST1R-001] (listed as Homo sapiens)”, the “Positive donors/donors tested [%]” value was 50% and the “Positive wells/wells tested [%]” value amounted to 14%.
The corresponding values for “NYLPFIMEL (listed as Homo sapiens) [UCHL5-001]” are 75% and 14%.
For “QYASRFVQL (listed as Homo sapiens) [PLK4-001]” the same measures were 60% and 5%.
For “RFLSGIINF (listed as Homo sapiens) [NUF2-002]” the same measures were 50% and 4%.
“RYLWATVTI (listed as Homo sapiens) [ASPM-001]”: the “Positive donors/donors tested [%]” value was 17% and the “Positive wells/wells tested [%]” value is 3%.
For “SYIDVLPEF (listed as Homo sapiens) [MET-006]” the same measures were 63% and 22%.
Regarding “SYNPLWLRI (listed as Homo sapiens) [ASPM-002]”, the “Positive donors/donors tested [%]” value came out at 63% and the “Positive wells/wells tested [%]” value is reported as 31%.
The corresponding values for “TYGNLLDYL (listed as Homo sapiens) [ABL1-001]” are 50% and 13%.
For “VFDTAIAHLF (listed as Homo sapiens) [SIAH2-001]” the same measures were 50% and 4%.
As to “VFIFKGNQF (listed as Homo sapiens) [MMP3-001]”, the “Positive donors/donors tested [%]” value came to 13% and the “Positive wells/wells tested [%]” value was found to be 1%.
The corresponding values for VWSDVTPLTF [PROM1-001] are 83% and 26%.
Regarding “VYGIRLEHF (listed as Homo sapiens) [NUF2-001]”, the “Positive donors/donors tested [%]” value came to 100% and the “Positive wells/wells tested [%]” value is recorded as 25%.
For “VYIEKNDKL (listed as Homo sapiens) [ERBB3-001]” the same measures were 83% and 15%.
The corresponding values for “VYKVVGNLL (listed as Homo sapiens) [IQGAP3-001]” are 100% and 24%.
The corresponding values for “VYTTSYQQI (listed as Homo sapiens) [NFYB-001]” are 50% and 7%.
In the case of “YYNAAGFNKL (listed as Homo sapiens) [UQCRB-001]”, the “Positive donors/donors tested [%]” value is reported as 100% and the “Positive wells/wells tested [%]” value is 38%.
